In general, IC50 refers to the concentration needed to halve the response being measured.

Holding throughout (type): cell-based
The subject of test [1] is CAL33 cells. The test is described as follows: MTS cell viability assay, CAL33. How it is done:
A Cell Titer 96 AQueous One Solution Cell Proliferation Assay (Promega) was used for MTS assays following the manufacturer's protocol. […] MTS was added, cells were incubated for two hours, and absorbance was measured at 490 nm using iMark™ Microplate Absorbance Reader (Bio-Rad). Graphs display percent cell viability relative to the DMSO-treated control sample. EC50 values were determined using GraphPad Prism 8.
Background: Tetrazolium dyes change colour on reduction, which living cells bring about.

Test [2] deals with CAL33 cells. The test is described as follows: Colony formation assay, CAL33. The procedure:
(§1) Crystal violet assays were used to assess relative cell growth and survival after treatment with specific compounds. In general, cells were plated in triplicate in 12-well plates for 24 hours before drug treatments were added using 10% FBS media. The plates were incubated for 14 days, with the media and drug being replaced every 48 hours. The cells were then washed with phosphate-buffered saline and fixed in ice-cold methanol before being stained with 0.5% crystal violet (Sigma-Aldrich) in 25% methanol. Images were taken using a ChemiDoc MP Imaging System (Bio Rad), and for quantification, the crystal violet stain was dissolved in 33% acetic acid, incubated for 20 minutes with shaking, and read at 595 nm using iMark™ Microplate Absorbance Reader (Bio-Rad). Graphs display percent colony formation relative to the DMSO-treated control sample.

For another test, the target named is T1, LZK (Homo sapiens, UniProt O43283).
T1 sequence (O43283 1-966): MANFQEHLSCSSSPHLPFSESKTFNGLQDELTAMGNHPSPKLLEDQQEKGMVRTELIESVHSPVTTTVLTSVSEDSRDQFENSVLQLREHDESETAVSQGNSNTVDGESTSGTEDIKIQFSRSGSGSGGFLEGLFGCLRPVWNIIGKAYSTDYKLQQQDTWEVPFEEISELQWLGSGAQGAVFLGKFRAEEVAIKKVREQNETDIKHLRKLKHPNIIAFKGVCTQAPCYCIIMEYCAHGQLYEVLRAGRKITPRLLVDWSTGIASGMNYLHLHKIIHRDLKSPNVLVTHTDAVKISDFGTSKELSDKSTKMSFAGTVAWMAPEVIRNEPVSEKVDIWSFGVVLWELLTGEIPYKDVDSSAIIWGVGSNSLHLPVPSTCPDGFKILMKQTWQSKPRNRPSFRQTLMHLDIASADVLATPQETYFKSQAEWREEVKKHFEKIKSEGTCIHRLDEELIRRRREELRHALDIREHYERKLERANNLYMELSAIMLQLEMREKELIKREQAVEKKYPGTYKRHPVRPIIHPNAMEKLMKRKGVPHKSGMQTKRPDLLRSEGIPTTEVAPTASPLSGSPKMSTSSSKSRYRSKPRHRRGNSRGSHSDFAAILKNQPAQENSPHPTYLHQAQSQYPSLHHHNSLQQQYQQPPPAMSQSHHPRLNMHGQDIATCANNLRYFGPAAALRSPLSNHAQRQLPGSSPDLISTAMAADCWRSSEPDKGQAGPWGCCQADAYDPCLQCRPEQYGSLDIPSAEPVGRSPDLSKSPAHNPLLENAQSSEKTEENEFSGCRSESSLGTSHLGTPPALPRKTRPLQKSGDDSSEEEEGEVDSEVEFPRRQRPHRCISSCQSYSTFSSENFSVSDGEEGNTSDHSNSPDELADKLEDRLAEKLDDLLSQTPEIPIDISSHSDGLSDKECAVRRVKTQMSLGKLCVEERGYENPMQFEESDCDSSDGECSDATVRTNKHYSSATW
The test is described as follows: LZK inhibition in cells monitored by downstream JNK phosphorylation (dox-induced LZK). Also on record: V5 (named only in the vector); expressed in transfected cells; host or cells: CAL33 HNSCC cells, lentiviral T-REx system, induced with doxycycline. To be noted: for duration of JNK pathway inactivation / time at which LZK activity toward JNK was inhibited: 250 nM; for LZK inhibition in cells, measured by inhibition of downstream JNK pathway activation: dox-inducible LZK in CAL33 cells. An excerpt:
The ViraPower HiPerform T-REx Gateway Expression System (Invitrogen) was used to generate cells with tetracycline-inducible expression of LZK. In brief, wild-type (WT) or drug-resistant mutant (Q240S) LZK (cloned into pLenti6.3/TO/V5-DEST vector) and pLenti3.3/TR (for tetracycline repressor expression) were transfected into 293FT cells using Lipofectamine 2000 to generate lentiviral stock. Cell lines were generated by antibiotic selection (blasticidin [Gibco] and geneticin [Gibco]). Doxycycline (Sigma-Aldrich) was used at 1 μg/mL to induce LZK expression.
Generally, cells were plated in six-well or 35-mm plates for 24 hours, after which doxycycline was added or treatment with specific inhibitor was administered using […] for 48 hours. After appropriate treatment time, cells were washed with ice-cold phosphate-buffered saline without Ca and Mg (Quality Biological) and then lysed on ice with RIPA buffer (50 mM NaCl, 1.0% o IGEPAL® CA-630, 0.5% o sodium deoxycholate, 0.10% SDS, 50 mM Tris, pH 8.0) (Sigma-Aldrich) supplemented with protease inhibitor tablet (Sigma-Aldrich) and phosphatase inhibitor cocktails 2 and 3 (Sigma-Aldrich) followed by centrifugation at 15,000 rpm for 10 minutes at 4° C. Protein concentrations were determined from the cell lysate by using 660 nm Protein Assay Reagent (Pierce). Cell extracts were denatured, subjected to SDS-PAGE, transferred to PVDF membranes (Bio-Rad) and blocked for 2 hours using 5 bovine serum albumin (BSA) in phosphate-buffered saline and 0.10 Tween® 20 (PBS-T). The membranes were incubated with the specific antibodies overnight in […] at 4° C. followed by a 1 hour incubation with the appropriate horseradish peroxidase-conjugated secondary antibodies and signal was detected by chemiluminescence (Thermo Fisher).
A PathScan® Phospho-SAPK/JNK (Thr183/Tyr185) Sandwich ELISA Assay (Cell Signaling Technology) was used for ELISA assays following the manufacturer's protocol. In general, 500,000 cells were plated and treated with doxycycline the following day where appropriate and incubated at 37° C. for 48 hours. Cells were treated with the drug compound or control in 5% FBS media for 1 hour. After appropriate treatment time, cells were lysed on ice with 1x Cell Lysis Buffer (Cell Signaling Technology) supplemented with phosphatase and protease inhibitors (Sigma). Each diluted cell lysate was added to Phospho-SAPK/JNK (Thr183/Tyr185)Rabbit mAb Coated microwells in triplicate and incubated overnight at 4° C. Samples were treated with the following antibodies and incubated at 37° C. for 1 hour and 30 minutes, respectively: Detection Antibody and HRP-Linked secondary antibody. Samples were washed between treatments using 1× Wash Buffer according to the manufacturer's protocol. TMB substrate was added to each well and incubated at 37° C. for 10 minutes. Following this, STOPsolution was added to each well and absorbance was measured at 450 nm using iMark™ Microplate Absorbance Reader (Bio-Rad). Graphs display relative phospho-JNK levels.

A further test relates to LK2 cells. The test is described as follows: Colony formation assay, LK2. How it is done:
as §1

In the next test the test system is BICR56 cells. The test is described as follows: Colony formation assay, BICR56. The procedure:
as §1

For the next test, the system named is NCI-H520 cells. The test is described as follows: Colony formation assay, NCI-H520. How it is done: as §1
[3] abbreviates: LZK inhibitor 2, concentration not stated.

For `Cc1ncsc1-c1ccc([C@H](C)NC(=O)[C@@H]2C[C@@H](O)CN2C(=O)[C@@H](NC(=O)CCCCCCC(=O)N2CCC(c3cc(Nc4cc(C#N)ccn4)nc(N4CCC(F)(F)C4)c3)CC2)C(C)(C)C)cc1` [Compound 3], the short-term cell viability result in the test with CAL33 cells [1] is on record as “reduced”. Moreover, the clonogenic growth entry in the test with CAL33 cells [2] (1 μM for 14 days) and in the test with BICR56 cells (1 μM for 14 days) was “significant decreases in clonogenic growth” in each case. In addition, the colony formation entry with CAL33 cells [2] (2.5 μM) and in the test with BICR56 cells (2.5 μM) was “almost complete loss of colony formation” throughout. At LZK (CAL33 cells induced with doxycycline, 0-10 μM), the “JNK signaling inhibition by targeted degraders” value was “inhibited JNK signaling”. The LSCC cell growth result with LK2 cells (2.5 μM) and in the test with NCI-H520 cells (2.5 μM) was “significantly decreased LSCC cell growth” in each case.
For `N#Cc1ccnc(Nc2cc(C3CCN(C4COC4)CC3)cc(N3CCC(F)(F)C3)n2)c1` [GNE-3511], the IC50 with CAL33 cells [1] (Homo sapiens, CAL-33, 72 hours, read-out: IC50, viability in short-term MTS assay) came out at 688 ± 114 nM. Further, the “reduction in colony formation” value was at least 80% in the test with CAL33 cells [2] (200 nM, 14 days); 45% in the test on LK2 cells (500 nM); at least 80% in the test with BICR56 cells (200 nM, 14 days); 55% with NCI-H520 cells (500 nM). The “LZK activity, as monitored by downstream JNK phosphorylation” value at LZK (100 nM to 5 μM at 1 hour) is given as “inhibited LZK activity”. Further, the “duration of JNK pathway inactivation” value at LZK is recorded as “up to 72 hours”. The “time at which LZK activity toward JNK was inhibited” value on LZK was at most 15 min. The “LZK inhibition in cells, measured by inhibition of downstream JNK pathway activation” value at LZK is listed as “potent LZK inhibitor in cells”.
Turning to `CC(=O)N1CCC(c2cc(Nc3cc(C#N)ccn3)nc(N3CCC(F)(F)C3)c2)CC1` [LZK inhibitor 2], the “rescue of drug-induced loss of viability by LZK^Q240S expression” value with CAL33 cells [1] (72-hour MTS assay) is reported as “rescued decreases in viability”. In addition, the colony formation entry with CAL33 cells [2] (setting [3]) is given as “suppressed colony formation”. Besides, at LZK, the “duration of JNK pathway inactivation” value turned out to be 72 h; the “time at which LZK activity toward JNK was inhibited” value was “five”; the “LZK inhibition in cells, measured by inhibition of downstream JNK pathway activation” value is reported as “potent LZK inhibitor”. Moreover, the “concentration at which LZK activity was suppressed” value on LZK (1 hour) was determined as 100 nM. In addition, the “JNK signaling inhibition compared with GNE-3511” value on LZK (one hour) is recorded as “inhibited JNK signaling at lower concentrations than GNE-3511”. Further, in the test on LK2 cells (1 μM), the LSCC cell growth entry is “significantly decreased LSCC cell growth”. Moreover, in the test on BICR56 cells (setting [3]), the colony formation result is listed as “suppressed colony formation”. Besides, the LSCC cell growth entry in the test on NCI-H520 cells (1 μM) is reported as “significantly decreased LSCC cell growth”.
